pIC50: −log10 of the molar value.
Target: T1, FATP2 (Mus musculus, UniProt O35488)
T1 construct: gene Slc27a2; endogenous full-length FATP2 in native mouse αTC1-6 pancreatic α cell line (ATCC)
Assay: BODIPY-labelled C18 fatty acid uptake (QBT fluorescence assay)
Type: cell-based
Details: native αTC1-6 cells; 1 h preincubation, 37°C; 2.5 μM BODIPY-C18 fatty acid with 0.2% fatty acid-free albumin; uptake read at 60 s
Text: BODIPY-labelled C18 fatty acid uptake (QBT fluorescence assay) on FATP2 | fatty acid uptake was blocked by the FATP2 inhibitor lipofermata

T1 sequence (O35488 whole entry): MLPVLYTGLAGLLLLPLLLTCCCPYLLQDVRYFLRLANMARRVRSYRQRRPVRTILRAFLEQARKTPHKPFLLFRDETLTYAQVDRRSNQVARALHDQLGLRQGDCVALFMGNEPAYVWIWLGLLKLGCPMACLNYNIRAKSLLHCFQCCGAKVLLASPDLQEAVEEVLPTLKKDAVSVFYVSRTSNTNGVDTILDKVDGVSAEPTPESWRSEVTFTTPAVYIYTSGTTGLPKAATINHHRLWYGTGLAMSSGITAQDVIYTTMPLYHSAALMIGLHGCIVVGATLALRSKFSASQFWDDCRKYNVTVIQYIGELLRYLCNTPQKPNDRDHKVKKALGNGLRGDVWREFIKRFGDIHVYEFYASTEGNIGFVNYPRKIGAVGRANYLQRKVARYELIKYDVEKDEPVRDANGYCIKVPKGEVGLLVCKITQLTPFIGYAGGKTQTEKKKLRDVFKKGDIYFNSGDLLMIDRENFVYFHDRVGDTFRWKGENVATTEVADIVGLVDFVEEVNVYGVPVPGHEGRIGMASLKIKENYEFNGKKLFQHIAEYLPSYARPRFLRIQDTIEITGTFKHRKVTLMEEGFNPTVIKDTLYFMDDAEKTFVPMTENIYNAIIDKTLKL

- pIC50: 5.27
SMILES: O=C1Nc2ccc(Br)cc2C12NN=C(c1ccccc1)S2 (stereo not shown) [lipofermata, 5-bromo-5′-phenylspiro[3H-1,3,4-thiadiazole-2,3′-indoline]-2-1]
